Each block holds one molecule with its values, some of them ahead of it.
Tests used:
[1] = target: T1, Cyclin-dependent kinase 11A (Homo sapiens) (UniProt Q9UQ88); conditions: at 10 µM
T1 sequence (whole entry): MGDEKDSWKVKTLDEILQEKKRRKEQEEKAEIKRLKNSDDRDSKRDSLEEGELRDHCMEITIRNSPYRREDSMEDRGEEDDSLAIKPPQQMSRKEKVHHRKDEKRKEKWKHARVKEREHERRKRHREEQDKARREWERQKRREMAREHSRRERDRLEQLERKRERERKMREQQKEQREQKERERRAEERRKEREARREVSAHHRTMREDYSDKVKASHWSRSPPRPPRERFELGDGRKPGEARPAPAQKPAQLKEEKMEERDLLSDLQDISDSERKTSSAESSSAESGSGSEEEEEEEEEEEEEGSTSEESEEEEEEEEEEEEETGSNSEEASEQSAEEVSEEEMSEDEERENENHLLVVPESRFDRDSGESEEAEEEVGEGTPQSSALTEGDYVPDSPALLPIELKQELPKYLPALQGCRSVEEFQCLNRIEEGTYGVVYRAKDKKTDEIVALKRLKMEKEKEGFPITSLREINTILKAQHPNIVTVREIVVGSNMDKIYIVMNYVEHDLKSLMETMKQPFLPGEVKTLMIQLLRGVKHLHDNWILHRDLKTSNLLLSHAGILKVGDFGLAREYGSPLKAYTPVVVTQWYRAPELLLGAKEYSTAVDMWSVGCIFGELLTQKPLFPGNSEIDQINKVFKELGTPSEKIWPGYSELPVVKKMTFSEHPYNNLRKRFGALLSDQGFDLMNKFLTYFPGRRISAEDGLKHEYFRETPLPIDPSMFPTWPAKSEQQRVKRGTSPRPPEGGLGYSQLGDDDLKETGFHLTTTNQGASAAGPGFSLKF

[2] = target: T1, Cyclin-dependent kinase 11A (Homo sapiens); conditions: at 10 µM; remark: listed apart in the source
[3] = target: Ribosomal protein S6 kinase alpha-4 (Homo sapiens) (UniProt O75676); test: Selectivity interaction (Ambit KINOMEscan and KiNATiv profiling in Jurkat cells) EUB0000090b RPS6KA4; type: cell-based; conditions: at 1 µM
[4] = target: T2, Ribosomal protein S6 kinase alpha-3 (Homo sapiens, UniProt P51812); test: Selectivity interaction (ActivX KiNativ screen (kinase selectivity in THP-1 cell lysates)) EUB0000639a RPS6KA3; type: subcellular; conditions: lysate, at 0.2 µM
[5] = target: Vascular endothelial growth factor receptor 2 (Homo sapiens, UniProt P35968); test: Selectivity interaction (Kinase panel (Z-LYTE Assay)) EUB0001632a KDR; conditions: at 10 µM
[6] = target: T2, Ribosomal protein S6 kinase alpha-3; test: Selectivity interaction (Kinase panel (Z-LYTE Assay)) EUB0001632a RPS6KA3; conditions: at 10 µM
[7] = target: RAC-beta serine/threonine-protein kinase (Homo sapiens) (UniProt P31751); test: Selectivity interaction (Rxn Biology Kinase assay) EUB0001632a AKT2; conditions: at 10 µM
CDK1/Cyclin A = CDK1/Cyclin A (Homo sapiens, UniProt P06493+P20248+P78396); test: Selectivity interaction (Enzymatic assay (Reaction Biology)) EUB0001632a CDK1; type: protein-complex assay
[8] = target: Mitogen-activated protein kinase kinase kinase 1 (Homo sapiens, UniProt Q13233); test: Selectivity interaction (KinomeScan (DiscoverX)) EUB0000595a MAP3K1; conditions: at 10 µM
[9] = target: T3, Bromodomain-containing protein 1 (Homo sapiens) (UniProt O95696); test: Selectivity interaction (Human bromodomain panel (DSF assay)) EUB0000233b BRD1
T3 sequence (whole entry): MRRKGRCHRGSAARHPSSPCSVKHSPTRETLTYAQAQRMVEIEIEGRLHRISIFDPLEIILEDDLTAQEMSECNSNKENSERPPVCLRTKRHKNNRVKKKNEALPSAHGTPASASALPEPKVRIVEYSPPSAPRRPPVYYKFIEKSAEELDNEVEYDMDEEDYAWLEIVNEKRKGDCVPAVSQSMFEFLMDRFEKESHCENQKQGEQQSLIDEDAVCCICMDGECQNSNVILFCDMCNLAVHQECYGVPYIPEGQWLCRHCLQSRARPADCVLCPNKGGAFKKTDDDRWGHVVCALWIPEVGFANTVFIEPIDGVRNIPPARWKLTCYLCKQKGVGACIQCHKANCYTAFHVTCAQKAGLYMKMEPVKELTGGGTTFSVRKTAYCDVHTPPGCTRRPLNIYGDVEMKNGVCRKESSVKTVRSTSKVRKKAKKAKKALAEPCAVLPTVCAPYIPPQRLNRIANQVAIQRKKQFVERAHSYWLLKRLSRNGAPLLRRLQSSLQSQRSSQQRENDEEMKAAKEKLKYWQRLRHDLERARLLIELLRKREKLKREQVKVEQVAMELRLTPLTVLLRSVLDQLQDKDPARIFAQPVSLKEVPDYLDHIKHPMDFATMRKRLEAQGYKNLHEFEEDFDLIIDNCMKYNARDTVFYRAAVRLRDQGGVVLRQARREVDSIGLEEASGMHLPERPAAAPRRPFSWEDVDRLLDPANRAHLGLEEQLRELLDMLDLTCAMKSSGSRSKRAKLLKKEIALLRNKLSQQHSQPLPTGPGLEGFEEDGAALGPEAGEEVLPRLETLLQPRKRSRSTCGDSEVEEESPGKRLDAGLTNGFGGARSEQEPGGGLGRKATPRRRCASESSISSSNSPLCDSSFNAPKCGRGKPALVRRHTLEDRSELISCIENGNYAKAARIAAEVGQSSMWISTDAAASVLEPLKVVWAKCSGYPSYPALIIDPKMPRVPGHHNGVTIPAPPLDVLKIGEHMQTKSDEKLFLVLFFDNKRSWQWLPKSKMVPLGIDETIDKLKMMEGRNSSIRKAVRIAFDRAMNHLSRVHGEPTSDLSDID

[10] = target: Protein arginine N-methyltransferase 6 (Homo sapiens, UniProt Q96LA8); test: Selectivity interaction (Methyltransferase screen (Scintillation proximity assays)) EUB0000255b PRMT6
[11] = target: T4, Serine/threonine-protein kinase 17B (Homo sapiens) (UniProt O94768); test: Selectivity interaction (KinomeScan (DiscoverX)) EUB0000666a STK17B; conditions: at 10 µM
T4 sequence (whole entry): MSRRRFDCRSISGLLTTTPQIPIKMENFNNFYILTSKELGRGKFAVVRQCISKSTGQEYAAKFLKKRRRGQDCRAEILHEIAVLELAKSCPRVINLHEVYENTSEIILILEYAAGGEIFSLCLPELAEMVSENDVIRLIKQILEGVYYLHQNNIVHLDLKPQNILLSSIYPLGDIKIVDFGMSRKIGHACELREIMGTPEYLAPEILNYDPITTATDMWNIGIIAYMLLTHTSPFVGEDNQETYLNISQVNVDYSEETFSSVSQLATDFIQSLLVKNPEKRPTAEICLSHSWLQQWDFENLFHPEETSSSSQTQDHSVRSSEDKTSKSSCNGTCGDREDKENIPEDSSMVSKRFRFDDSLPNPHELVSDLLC

T2 sequence (P51812 whole entry): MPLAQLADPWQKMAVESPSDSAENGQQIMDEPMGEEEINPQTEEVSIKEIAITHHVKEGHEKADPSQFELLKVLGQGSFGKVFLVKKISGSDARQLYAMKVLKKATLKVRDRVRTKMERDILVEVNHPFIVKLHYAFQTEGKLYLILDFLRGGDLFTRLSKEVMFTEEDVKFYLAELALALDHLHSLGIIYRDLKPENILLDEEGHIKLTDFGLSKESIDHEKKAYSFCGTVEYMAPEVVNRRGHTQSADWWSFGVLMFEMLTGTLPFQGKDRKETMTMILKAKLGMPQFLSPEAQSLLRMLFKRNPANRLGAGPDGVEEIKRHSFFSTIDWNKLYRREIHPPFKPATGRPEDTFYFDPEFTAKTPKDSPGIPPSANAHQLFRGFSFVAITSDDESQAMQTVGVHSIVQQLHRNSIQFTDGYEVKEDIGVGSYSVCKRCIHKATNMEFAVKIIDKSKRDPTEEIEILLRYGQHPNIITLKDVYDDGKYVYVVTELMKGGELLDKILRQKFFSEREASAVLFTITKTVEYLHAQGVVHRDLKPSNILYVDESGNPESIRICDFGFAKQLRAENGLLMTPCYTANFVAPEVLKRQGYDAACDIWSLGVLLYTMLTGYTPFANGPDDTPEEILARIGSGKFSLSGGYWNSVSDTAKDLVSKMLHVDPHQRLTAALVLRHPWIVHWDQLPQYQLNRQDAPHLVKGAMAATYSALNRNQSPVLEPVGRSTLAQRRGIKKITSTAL
Chain of Protein arginine N-methyltransferase 6 (Q96LA8 whole entry, looked up): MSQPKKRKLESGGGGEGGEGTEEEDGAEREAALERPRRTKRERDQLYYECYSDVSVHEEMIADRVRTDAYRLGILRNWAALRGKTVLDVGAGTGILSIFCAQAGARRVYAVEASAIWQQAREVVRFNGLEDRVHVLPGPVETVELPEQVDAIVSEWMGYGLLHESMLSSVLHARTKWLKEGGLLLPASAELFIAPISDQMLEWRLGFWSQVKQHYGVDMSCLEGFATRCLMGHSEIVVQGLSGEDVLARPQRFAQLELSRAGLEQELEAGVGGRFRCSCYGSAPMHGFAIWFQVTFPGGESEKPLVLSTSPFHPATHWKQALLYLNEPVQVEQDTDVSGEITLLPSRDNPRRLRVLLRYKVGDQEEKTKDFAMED
Chain of Mitogen-activated protein kinase kinase kinase 1 (Q13233 whole entry): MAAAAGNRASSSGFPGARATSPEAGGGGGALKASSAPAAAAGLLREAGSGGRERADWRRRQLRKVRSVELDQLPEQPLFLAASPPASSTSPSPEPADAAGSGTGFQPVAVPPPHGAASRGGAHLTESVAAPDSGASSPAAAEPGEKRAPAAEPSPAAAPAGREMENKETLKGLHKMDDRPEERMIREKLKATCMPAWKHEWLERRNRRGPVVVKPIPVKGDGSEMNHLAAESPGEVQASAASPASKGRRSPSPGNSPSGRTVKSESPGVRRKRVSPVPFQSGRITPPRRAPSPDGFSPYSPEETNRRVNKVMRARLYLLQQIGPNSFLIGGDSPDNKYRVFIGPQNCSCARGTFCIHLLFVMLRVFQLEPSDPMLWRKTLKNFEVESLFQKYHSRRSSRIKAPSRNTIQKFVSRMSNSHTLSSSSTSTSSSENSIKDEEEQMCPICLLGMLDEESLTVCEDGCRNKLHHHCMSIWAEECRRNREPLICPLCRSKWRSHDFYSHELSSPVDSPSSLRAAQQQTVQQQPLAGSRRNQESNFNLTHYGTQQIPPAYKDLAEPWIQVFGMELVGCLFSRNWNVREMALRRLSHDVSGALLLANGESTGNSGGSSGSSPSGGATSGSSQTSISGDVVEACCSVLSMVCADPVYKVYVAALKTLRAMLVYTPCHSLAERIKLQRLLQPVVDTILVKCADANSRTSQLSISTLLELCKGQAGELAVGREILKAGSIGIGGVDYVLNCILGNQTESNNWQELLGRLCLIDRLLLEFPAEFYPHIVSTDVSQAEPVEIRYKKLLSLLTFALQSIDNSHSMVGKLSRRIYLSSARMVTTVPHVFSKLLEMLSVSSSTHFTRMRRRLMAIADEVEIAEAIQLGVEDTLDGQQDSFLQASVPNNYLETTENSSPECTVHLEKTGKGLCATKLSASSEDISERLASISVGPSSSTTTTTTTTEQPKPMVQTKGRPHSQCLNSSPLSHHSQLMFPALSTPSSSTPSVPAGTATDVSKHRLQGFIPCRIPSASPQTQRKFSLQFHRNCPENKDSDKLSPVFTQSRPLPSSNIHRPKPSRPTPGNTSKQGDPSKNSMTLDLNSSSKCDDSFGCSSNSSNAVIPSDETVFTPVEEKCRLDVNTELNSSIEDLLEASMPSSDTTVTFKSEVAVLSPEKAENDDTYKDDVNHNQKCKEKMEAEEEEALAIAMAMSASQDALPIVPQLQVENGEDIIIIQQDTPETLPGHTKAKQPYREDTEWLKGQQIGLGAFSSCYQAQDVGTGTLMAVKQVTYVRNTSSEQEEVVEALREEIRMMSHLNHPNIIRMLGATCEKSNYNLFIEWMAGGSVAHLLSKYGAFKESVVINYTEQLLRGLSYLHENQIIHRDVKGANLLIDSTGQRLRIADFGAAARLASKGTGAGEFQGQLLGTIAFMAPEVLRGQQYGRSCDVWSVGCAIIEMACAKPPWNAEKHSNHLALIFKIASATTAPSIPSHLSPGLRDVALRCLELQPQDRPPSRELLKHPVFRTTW
Chain of CDK1/Cyclin A (P06493 whole entry): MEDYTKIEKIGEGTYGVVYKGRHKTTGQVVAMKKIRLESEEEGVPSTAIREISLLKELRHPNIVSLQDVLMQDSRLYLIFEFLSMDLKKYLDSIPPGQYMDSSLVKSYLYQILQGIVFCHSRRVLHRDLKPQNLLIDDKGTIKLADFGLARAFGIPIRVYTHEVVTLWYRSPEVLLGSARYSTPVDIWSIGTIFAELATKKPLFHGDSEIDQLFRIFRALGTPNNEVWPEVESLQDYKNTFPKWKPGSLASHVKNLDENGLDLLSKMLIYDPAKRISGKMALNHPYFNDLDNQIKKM
Chain of CDK1/Cyclin A (P20248 whole entry): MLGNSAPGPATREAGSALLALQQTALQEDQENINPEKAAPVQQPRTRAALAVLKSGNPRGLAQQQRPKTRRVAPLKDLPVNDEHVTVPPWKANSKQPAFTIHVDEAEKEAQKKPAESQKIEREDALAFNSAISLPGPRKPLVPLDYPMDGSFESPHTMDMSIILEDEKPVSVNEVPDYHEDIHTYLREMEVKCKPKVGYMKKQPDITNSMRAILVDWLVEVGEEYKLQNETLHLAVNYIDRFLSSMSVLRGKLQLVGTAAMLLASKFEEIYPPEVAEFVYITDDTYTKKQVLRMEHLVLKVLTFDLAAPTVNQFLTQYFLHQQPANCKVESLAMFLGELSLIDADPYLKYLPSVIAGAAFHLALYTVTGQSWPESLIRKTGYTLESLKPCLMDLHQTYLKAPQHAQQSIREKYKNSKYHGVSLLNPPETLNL
Chain of CDK1/Cyclin A (P78396 whole entry): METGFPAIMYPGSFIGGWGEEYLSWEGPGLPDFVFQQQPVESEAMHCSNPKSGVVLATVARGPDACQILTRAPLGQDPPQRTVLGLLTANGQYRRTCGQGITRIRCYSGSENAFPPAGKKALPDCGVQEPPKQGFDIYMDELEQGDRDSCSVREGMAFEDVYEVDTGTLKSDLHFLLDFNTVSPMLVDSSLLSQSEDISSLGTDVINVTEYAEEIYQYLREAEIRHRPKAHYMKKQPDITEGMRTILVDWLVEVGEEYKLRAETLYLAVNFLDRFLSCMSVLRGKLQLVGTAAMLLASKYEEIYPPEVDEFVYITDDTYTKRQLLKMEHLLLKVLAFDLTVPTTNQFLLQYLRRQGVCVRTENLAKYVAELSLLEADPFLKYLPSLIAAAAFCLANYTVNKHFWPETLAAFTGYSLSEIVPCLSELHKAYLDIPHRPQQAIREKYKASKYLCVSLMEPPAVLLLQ
Chain of Ribosomal protein S6 kinase alpha-4 (Homo sapiens) (O75676 whole entry, looked up): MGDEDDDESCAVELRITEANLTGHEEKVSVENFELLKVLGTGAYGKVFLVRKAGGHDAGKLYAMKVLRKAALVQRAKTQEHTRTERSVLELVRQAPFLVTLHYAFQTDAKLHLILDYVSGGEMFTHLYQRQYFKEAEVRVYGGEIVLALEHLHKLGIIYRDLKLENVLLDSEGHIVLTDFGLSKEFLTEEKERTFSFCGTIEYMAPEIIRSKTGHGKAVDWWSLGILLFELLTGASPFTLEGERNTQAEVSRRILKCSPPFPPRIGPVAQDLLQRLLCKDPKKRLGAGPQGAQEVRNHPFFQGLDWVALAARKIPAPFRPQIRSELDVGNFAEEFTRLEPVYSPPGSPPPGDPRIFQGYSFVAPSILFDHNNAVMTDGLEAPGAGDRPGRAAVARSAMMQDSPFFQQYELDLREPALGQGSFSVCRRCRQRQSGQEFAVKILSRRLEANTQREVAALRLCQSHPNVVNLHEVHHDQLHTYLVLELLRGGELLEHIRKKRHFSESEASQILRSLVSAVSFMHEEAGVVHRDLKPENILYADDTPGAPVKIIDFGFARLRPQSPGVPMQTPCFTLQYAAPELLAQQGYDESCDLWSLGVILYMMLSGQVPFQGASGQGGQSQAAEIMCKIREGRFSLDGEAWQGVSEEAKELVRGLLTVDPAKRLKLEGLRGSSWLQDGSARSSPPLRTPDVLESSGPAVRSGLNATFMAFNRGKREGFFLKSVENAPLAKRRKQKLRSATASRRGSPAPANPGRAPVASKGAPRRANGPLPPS

Compound: Cc1cc([C@@H](C)Nc2ccccc2C(=O)O)c2nc(N3CCOCC3)cc(=O)n2c1 [AZD-6482]
- % of control [1]: 91%
- % of control [2]: 100%

Compound: CN(C)C/C=C/C(=O)Nc1ccc(C(=O)N2CCCC(Nc3ncc(Cl)c(-c4c[nH]c5ccccc45)n3)C2)cc1 (stereo not drawn)
- % of control [3]: 93%

- % of inhibition [4]: 15.4%
Compound: CC[C@@H]1[C@H](F)C(=O)N[C@@H]1COc1nccc2cc(C(N)=O)c(OC)cc12 [ZIMLOVISERTIB]

- % of control [5]: 0.298%
- % of control [6]: 4.92%
- % of inhibition [7]: 1.65%
- IC50 (CDK1/Cyclin A): > 10 µM
Compound: Cn1cc(-n2cnc3c(NCc4nc5cc(Cl)c(Cl)cc5[nH]4)nc(N4CCOCC4)nc32)cn1

Compound: COCC(=O)NC/C=C/c1ccc2ncnc(Nc3ccc(Oc4ccc(C)nc4)c(C)c3)c2c1 [CP-724714]
- % of control [8]: 100%

- dTM [9]: < 2 K
Compound: CN(C)CCCOc1ccc(-c2cc(NCCCn3cccn3)nc(S(C)(=O)=O)n2)cc1

Compound: COCCN1CCC(c2cc(CN(C)C(=O)c3cccc(Oc4ccccc4)c3)ccn2)CC1
- % activity ([10]; at 1 µM): 17%
- % activity ([10]; at 10 µM): > 90%

Compound: O=C(NOC[C@H](O)CO)c1ccc(F)c(F)c1Nc1ccc(I)cc1F
- % of control [11]: 100%
